In patent publication US11738082B2, “High concentration protein formulations with reduced viscosity” (Bhami's Research Laboratory, Pvt. Ltd., priority 2017, dated 2023):
Structures can show the parent of a compound that is named as a salt. Blank lines part the entries; values can stand above or below the compound they belong to. Residues, ends and D or L forms follow the SMILES beside them.

System: Human Gamma Globulin (HGG), GLOBUCEL®
Assay: Viscosity of aqueous solutions of Human Gamma Globulin (Cambridge VISCOlab5000 or DV2T cone and plate viscometer)
[1] = HGG 220 mg/mL, excipient 10 mg/mL, citrate buffer pH 6.0, 25° C.
[2] = HGG 220 mg/mL, excipient 10 mg/mL, histidine buffer pH 6.0, 25° C.
[3] = HGG 220 mg/mL, excipient 10 mg/mL, phosphate buffer pH 6.0, 25° C.
[4] = HGG […], excipient 5%, 25 mM citrate buffer pH 6.0

Method: Commercially obtained human gamma globulin (HGG), GLOBUCEL® (50 mg/mL) containing pharmaceutical excipients (Maltose) was dialyzed against water for 24 hr at 4° C. with three changes. To the aqueous solution of HGG, either histidine or phosphate or citrate buffer was added from the stock concentration of 1000 mM for histidine buffer or 1000 mM for citrate buffer or 1000 mM for phosphate buffer, pH 6.0 to get a final concentration of 25 mM each. The HGG solutions in various buffers were concentrated to a final volume of less than 150 μL using Vivaspin centrifugal concentrators (Sartorius). The collected protein sample was stored at 4° C. […] The protein concentrations were experimentally determined using the extinction coefficient of 1.4
[formula] at 280 nm. The viscosities of the solution were measured either using a Cambridge Viscometer, VISCOlab5000 using 70 μL of sample at 25° C. or using a DV2T cone and plate viscometer using 1.5 mL of sample at 25° C. at extrapolated zero shear rate.
Commercially obtained human gamma globulin (HGG), GLOBUCEL® (50 mg/mL) containing pharmaceutical excipients (Maltose) was dialyzed against water for 24 hr at 4° C. with three changes. To the aqueous solution of HGG, either citrate-phosphate buffer pH 5.0 or citrate-phosphate buffer pH 6.0 or citrate-phosphate buffer pH 7.0 was added from the stock concentration of 1000 mM for citrate buffer at pH 5.0 or pH 6.0 or pH 7.0 to get a final concentration of 25 mM each. The HGG solutions in various pH buffers were concentrated to a final volume of less than 150 μL using Vivaspin centrifugal concentrators (Sartorius). The collected protein sample was stored at 4° C. […] The protein concentrations were experimentally determined using the extinction coefficient of 1.4
Commercially obtained human gamma globulin (HGG), GLOBUCEL® (50 mg/mL) containing pharmaceutical excipients (Maltose) was dialyzed against water for 24 hr at 4° C. with three changes. To the aqueous solution of HGG, phosphate/citrate/histidine Buffer was added from the stock concentration of 1000 mM phosphate/citrate/histidine buffer, pH 6.0 to get a final concentration of 25 mM. To the buffered HGG different amino acid or its derivative was added individually and mixed until complete dissolution. The excipient containing HGG was concentrated to a final volume of less than 150 μL using Vivaspin centrifugal concentrators (Sartorius). The collected protein sample was stored at 4° C. […] The protein concentrations were experimentally determined using the extinction coefficient of 1.4
Commercially obtained human gamma globulin (HGG), GLOBUCEL® (50 mg/mL) containing pharmaceutical excipients (Maltose) was dialyzed against water for 24 hr at 4° C. with three changes. To the aqueous solution of HGG, phosphate/citrate/histidine Buffer was added from the stock concentration of 1000 mM phosphate/citrate/histidine buffer, pH 6.0 to get a final concentration of 25 mM. To the buffered HGG, different nucleosides or nucleotides or its derivative was added individually and mixed until complete dissolution. The excipient containing HGG was concentrated to a final volume of less than 150 μL using Vivaspin centrifugal concentrators (Sartorius). The collected protein sample was stored at 4° C.

Compound: N=C(N)NCCCC[C@H](N)C(=O)O [Homoarginine]
Viscosity (cP) @ 25° C. (HGG 188 mg/mL, excipient 10 mg/mL (45 mM), 25 mM phosphate buffer pH 6.0): 28 cP

Compound: O=C[C@@H](O)[C@H](O)[C@H](O)CO [Arabinose]
Viscosity (cP) @ 25° C. (HGG 186 mg/mL, excipient 10 mg/mL (67 mM), 25 mM citrate buffer pH 6.0): 65 cP

Compound: O=C(O)c1cccnc1 [Nicotinic acid (acid form)]
Viscosity, cP [1]: 20 cP | Viscosity, cP [2]: 18 cP | Viscosity, cP [3]: 20 cP | Viscosity (cP) @ 25° C. (HGG 231 mg/mL, excipient 10 mg/mL (81 mM), 25 mM histidine buffer pH 6.0): 23 cP | Viscosity (cP) @ 25° C. (HGG 246 mg/mL, excipient 10 mg/mL (81 mM), 25 mM citrate buffer pH 6.0): 48 cP | Viscosity (cP) @ 25° C. (HGG 250 mg/mL, excipient 10 mg/mL (81 mM), 25 mM phosphate buffer pH 6.0): 30 cP | Viscosity, cP (HGG 260 mg/mL, nicotinic acid (acid form) 1 mg/mL, 25 mM histidine buffer pH 6.0, 25° C.): 85 cP | Viscosity, cP (HGG 260 mg/mL, nicotinic acid (acid form) 5 mg/mL, 25 mM histidine buffer pH 6.0, 25° C.): 68 cP | Viscosity, cP (HGG 260 mg/mL, nicotinic acid (acid form) 10 mg/mL, 25 mM histidine buffer pH 6.0, 25° C.): 52 cP | Viscosity, cP (HGG 260 mg/mL, nicotinic acid (acid form) 15 mg/mL, 25 mM histidine buffer pH 6.0, 25° C.): 41 cP | Viscosity, cP (HGG 274 mg/mL, in the presence of nicotinic acid (acid form), 25 mM histidine buffer pH 6.0, 20° C.): 63 cP | Viscosity, cP (HGG 274 mg/mL, in the presence of nicotinic acid (acid form), 25 mM histidine buffer pH 6.0, 25° C.): 41 cP | Viscosity, cP (HGG 274 mg/mL, in the presence of nicotinic acid (acid form), 25 mM histidine buffer pH 6.0, 30° C.): 35 cP | Viscosity (cP) @ 25° C. (HGG 277 mg/mL, excipient 10 mg/mL (81 mM), 25 mM citrate buffer pH 6.0): 123 cP | Viscosity (cP) @ 25° C. (HGG 342 mg/mL, excipient 10 mg/mL (81 mM), 25 mM histidine buffer pH 6.0): 178 cP

Compound: Cl.N [Ammonium chloride]
Viscosity (cP) @ 25° C. (HGG 182 mg/mL, excipient 5.35 mg/mL (100 mM), 25 mM phosphate buffer pH 6.0): 53 cP | Viscosity (cP) @ 25° C. (HGG 205 mg/mL, excipient 40 mg/mL (747 mM), 25 mM phosphate buffer pH 6.0): 21 cP

Compound: O=C(CO)[C@@H](O)[C@H](O)[C@H](O)CO [Fructose]
Viscosity (cP) @ 25° C. (HGG […], excipient 10 mg/mL (56 mM), 25 mM citrate buffer pH 6.0): 69 cP

Compound: CC(=O)Oc1ccccc1C(=O)O [Acetyl salicylic acid, reference compound]
Viscosity (cP) @ 25° C. (HGG 283 mg/mL, excipient 2.5 mg/mL (14 mM), 25 mM histidine buffer pH 6.0): 43 cP

Compound: COC(=O)c1cccnc1 [Methylnicotinate]
Viscosity (cP) @ 25° C. (HGG 216 mg/mL, excipient 10 mg/mL (73 mM), 25 mM phosphate buffer pH 6.0): 84 cP

Compound: COC(=O)[C@H](Cc1ccccc1)NC(=O)[C@@H](N)CC(=O)O [Aspartame] (H-Asp-Phe-OMe)
Viscosity (cP) @ 25° C. (HGG 140 mg/mL, excipient 10 mg/mL (34 mM), 25 mM citrate buffer pH 6.0): 51 cP | Viscosity (cP) @ 25° C. (HGG 218 mg/mL, excipient 10 mg/mL (34 mM), 25 mM phosphate buffer pH 6.0): 143 cP

Compound: N=C(N)NCCC[C@H](N)C(=O)O [Arginine]
Viscosity (cP) @ 25° C. (HGG 205 mg/mL, excipient 10 mg/mL (58 mM), 25 mM phosphate buffer pH 6.0): 85 cP | Viscosity (cP) @ 25° C. (HGG 220 mg/mL, excipient 10 mg/mL (58 mM), 25 mM phosphate buffer pH 6.0): 197 cP | Viscosity (cP) @ 25° C. (HGG 247 mg/mL, excipient 10 mg/mL (58 mM), 25 mM citrate buffer pH 6.0): 87 cP

Compound: O=C([O-])c1cccnc1.[Na+] [Nicotinic acid Sodium Salt]
Viscosity (cP) @ 25° C. (HGG 202 mg/mL, excipient 10 mg/mL (69 mM), 25 mM phosphate buffer pH 6.0): 29 cP | Viscosity (cP) @ 25° C. (HGG 203 mg/mL, excipient 10 mg/mL (69 mM), 25 mM histidine buffer pH 6.0): 21 cP | Viscosity, cP [2]: 81 cP | Viscosity, cP [3]: 95 cP | Viscosity, cP (HGG 225 mg/mL (footnote), excipient 10 mg/mL, citrate buffer pH 6.0, 25° C.): 71^$ cP | Viscosity (cP) @ 25° C. (HGG 225 mg/mL, excipient 10 mg/mL (69 mM), 25 mM phosphate buffer pH 6.0): 95 cP | Viscosity (cP) @ 25° C. (HGG 235 mg/mL, excipient 10 mg/mL (69 mM), 25 mM histidine buffer pH 6.0): 140 cP | Viscosity (cP) @ 25° C. (HGG 236 mg/mL, excipient […] (81 mM), 25 mM histidine buffer pH 6.0): 83 cP | Viscosity (cP) @ 25° C. (HGG […], excipient 10 mg/mL (69 mM), 25 mM citrate buffer pH 6.0): 71 cP

Compound: CC(=O)[O-].[K+] [Potassium acetate]
Viscosity (cP) @ 25° C. (HGG 228 mg/mL, excipient 40 mg/mL (408 mM), 25 mM phosphate buffer pH 6.0): 172 cP

Compound: Nc1ncccn1 [2-Aminopyrimidine]
Viscosity (cP) @ 25° C. (HGG 120 mg/mL, excipient 10 mg/mL (105 mM), 25 mM phosphate buffer pH 6.0): 87 cP

Compound: L-Pantothenic Acid hemicalcium salt
Viscosity (cP) @ 25° C. (HGG 182 mg/mL, excipient 10 mg/mL (42 mM), 25 mM phosphate buffer pH 6.0): 14 cP

Compound: Cl.NCCc1ccc(O)cc1 [Tyramine-HCl]
Viscosity (cP) @ 25° C. (HGG 215 mg/mL, excipient 10 mg/mL (58 mM), 25 mM phosphate buffer pH 6.0): 145 cP

Compound: N[C@@H](Cc1c[nH]c2ccccc12)C(=O)O [Tryptophan]
Viscosity (cP) @ 25° C. (HGG 200 mg/mL, excipient 6 mg/mL (29 mM), 25 mM phosphate buffer pH 6.0): 14 cP | Viscosity (cP) @ 25° C. (HGG 231 mg/mL, excipient 6 mg/mL (29 mM), 25 mM citrate buffer pH 6.0): 60 cP | Viscosity (cP) @ 25° C. (HGG 243 mg/mL, excipient 6 mg/mL (29 mM), 25 mM phosphate buffer pH 6.0): 35 cP | Viscosity (cP) @ 25° C. (HGG 256 mg/mL, excipient 6 mg/mL (29 mM), 25 mM histidine buffer pH 6.0): 18 cP

Next, values leading:

Viscosity (cP) @ 25° C. (HGG 238 mg/mL, excipient 10 mg/mL (95 mM), 25 mM phosphate buffer pH 6.0): 135 cP
Compound: N[C@@H](CO)C(=O)O [Serine]

Viscosity (cP) @ 25° C. (HGG 192 mg/mL, excipient 20 mg/mL (58 mM), 25 mM citrate buffer pH 6.0): 76 cP | Viscosity (cP) @ 25° C. (HGG 204 mg/mL, excipient 20 mg/mL (58 mM), 25 mM phosphate buffer pH 6.0): 190 cP
Compound: OC[C@H]1O[C@@](CO)(O[C@H]2O[C@H](CO)[C@@H](O)[C@H](O)[C@H]2O)[C@@H](O)[C@@H]1O [Sucrose]

Viscosity (cP) @ 25° C. (HGG 214 mg/mL, excipient 10 mg/mL (57 mM), 25 mM phosphate buffer pH 6.0): 59 cP
Compound: O=C1O[C@H]([C@@H](O)CO)C(O)=C1O [L-Ascorbic acid]

Viscosity (cP) @ 25° C. (HGG 218 mg/mL, excipient 10 mg/mL (41 mM), 25 mM phosphate buffer pH 6.0): 203 cP
Compound: Nc1ccn([C@@H]2O[C@H](CO)[C@@H](O)[C@H]2O)c(=O)n1 [Cytidine]

Viscosity (cP) @ 25° C. (HGG 161 mg/mL, excipient 10 mg/mL (41 mM), 25 mM phosphate buffer pH 6.0): 60 cP
Compound: Cc1cn([C@H]2C[C@H](O)[C@@H](CO)O2)c(=O)[nH]c1=O [Thymidine]

Viscosity (cP) @ 25° C. (HGG […], excipient 10 mg/mL (55 mM), 25 mM citrate buffer pH 6.0): 65 cP
Compound: OC[C@@H](O)[C@@H](O)[C@H](O)[C@H](O)CO [Mannitol]

Viscosity (cP) @ 25° C. (HGG 217 mg/mL, excipient 20 mg/mL (53 mM), 25 mM citrate buffer pH 6.0): 87 cP | Viscosity (cP) @ 25° C. (HGG 246 mg/mL, excipient 20 mg/mL (53 mM), 25 mM phosphate buffer pH 6.0): 54 cP
Compound: OC[C@H]1O[C@H](O[C@H]2O[C@H](CO)[C@@H](O)[C@H](O)[C@H]2O)[C@H](O)[C@@H](O)[C@@H]1O [Trehalose dihydrate]

Viscosity (cP) @ 25° C. (HGG 179 mg/mL, excipient 10 mg/mL (30 mM), 25 mM phosphate buffer pH 6.0): 24 cP | Viscosity (cP) @ 25° C. (HGG 200 mg/mL, excipient 10 mg/mL (30 mM), 25 mM histidine buffer pH 6.0): 29 cP | Viscosity (cP) @ 25° C. (HGG 200 mg/mL, excipient 27.3 mg/mL (81 mM), 25 mM phosphate buffer pH 6.0): 34 cP | Viscosity, cP [2]: 95 cP | Viscosity, cP [3]: 65 cP | Viscosity (cP) @ 25° C. (HGG 246 mg/mL, excipient 27.3 mg/mL (81 mM), 25 mM phosphate buffer pH 6.0): 91 cP | Viscosity (cP) @ 25° C. (HGG 248 mg/mL, excipient 10 mg/mL (30 mM), 25 mM phosphate buffer pH 6.0): 92 cP | Viscosity (cP) @ 25° C. (HGG 294 mg/mL, excipient 10 mg/mL (30 mM), 25 mM citrate buffer pH 6.0): 185 cP
Compound: Cc1ncc(C[n+]2csc(CCO)c2C)c(N)n1 [Thiamine-HCl]

Viscosity (cP) @ 25° C. (HGG 105 mg/mL, excipient 10 mg/mL (82 mM), 25 mM histidine buffer pH 6.0): 26 cP | Viscosity (cP) @ 25° C. (HGG 191 mg/mL, excipient 10 mg/mL (82 mM), 25 mM phosphate buffer pH 6.0): 21 cP | Viscosity (cP) @ 25° C. (HGG 219 mg/mL, excipient 10 mg/mL (82 mM), 25 mM citrate buffer pH 6.0): 72 cP | Viscosity, cP [1]: 72 cP | Viscosity, cP [2]: 43 cP | Viscosity, cP [3]: 49 cP | Viscosity (cP) @ 25° C. (HGG 224 mg/mL, excipient 10 mg/mL (82 mM), 25 mM histidine buffer pH 6.0): 43 cP | Viscosity (cP) @ 25° C. (HGG 250 mg/mL, excipient 10 mg/mL (82 mM), 25 mM phosphate buffer pH 6.0): 76 cP
Compound: NC(=O)c1cccnc1 [Nicotinamide]

Viscosity (cP) @ 25° C. (HGG 182 mg/mL, excipient 10 mg/mL (56 mM), 25 mM citrate buffer pH 6.0): 45 cP | Viscosity (cP) @ 25° C. (HGG 240 mg/mL, excipient 10 mg/mL (56 mM), 25 mM phosphate buffer pH 6.0): 176 cP
Compound: OC[C@@H](O)[C@@H](O)[C@H](O)[C@@H](O)CO [D-sorbitol]

Viscosity (cP) @ 25° C. (HGG 204 mg/mL, excipient 5%, 25 mM phosphate buffer pH 6.0): 121 cP | Viscosity (cP) @ 25° C. [4]: 28 cP
Compound: C[S+](C)[O-] [DMSO]

Viscosity (cP) @ 25° C. (HGG 182 mg/mL, excipient 5%, 25 mM phosphate buffer pH 6.0): 53 cP | Viscosity (cP) @ 25° C. [4]: 5 cP
Compound: CCO [Ethanol]

Viscosity (cP) @ 25° C. (HGG 203 mg/mL, excipient 10 mg/mL (41 mM), 25 mM phosphate buffer pH 6.0): 28 cP
Compound: O=c1ccn([C@@H]2O[C@H](CO)[C@@H](O)[C@H]2O)c(=O)[nH]1 [Uridine]

Viscosity (cP) @ 25° C. (HGG 235 mg/mL, excipient 1 mg/mL (9 mM), 25 mM phosphate buffer pH 6.0): 140 cP
Compound: O=c1cc[nH]c(=O)[nH]1 [Uracil]

Viscosity (cP) @ 25° C. (HGG 228 mg/mL, excipient 0.07%, 25 mM citrate buffer pH 6.0): 78 cP | Viscosity (cP) @ 25° C. (HGG 241 mg/mL, excipient 0.07%, 25 mM phosphate buffer pH 6.0): 84 cP
Compound: Polysorbate 80
